The record followed here is publication PMC4129416, “YLT192, a Novel, Orally Active Bioavailable Inhibitor of VEGFR2 Signaling with Potent Antiangiogenic Activity and Antitumor Efficacy in Preclinical Models” (Scientific Reports, 2014).

One data set deals with A2058. Description: Inhibition of tumor cell growth. It is filed as cell-based. Conditions: A2058, human melanoma; 48 hour treatment; means ± SD, n=3. The protocol:
(§1) The proliferative inhibitory ability of YLT192 on tumor cells was investigated. […] Inhibition of cell proliferation is a possible approach for cancer treatment. EdU incorporation assay was performed to investigate the anti-proliferative effects of YLT192 against U251 and HCT116 cells.
(§2) treatment with YLT192. Data are means ± SD, n=3.

The next data set relates to A875. Description: Inhibition of tumor cell growth. It is filed as cell-based. The conditions noted are these: A875, human melanoma; 48 hour treatment; means ± SD, n=3. The protocol: as §1, §2
The next data set deals with HUVEC. Description: Wound healing migration assay. It is filed as cell-based, human. The conditions noted are these: 24 hours. From the text: Cell migration is essential for ECs in angiogenesis and for cancer cells in tumor growth and metastasis. […] Cell invasion is essential for EC in angiogenesis, so we performed transwell assays to evaluate the ability of HUVEC to pass through the Matrigel and membrane barriers of the transwell in the presence of various concentrations of YLT192 or vehicle.
Figure 2 Effects of YLT192 on HUVECs proliferation, migration, invasion and tube formation. […] Cells were wounded by the pipette and then treated with various concentrations of compounds for 24 hours. Migrated cells were quantified by manual counting (50×). […] The bottom chambers of the transwells were filled with 600 μL EGM2 containing various growth factors while the top chambers were seeded with 4 × 10^4 HUVECs in EBM2 and treated with different concentrations of compounds for 24 hours. Cells invaded through the membrane were stained and quantified (100×). […] HUVECs were seeded on Matrigel layer and treated with different concentrations of compounds. HUVECs tube formation was assessed 6 hours later (50×). One representative experiment of three is shown. For (A), (B) and (C), data represent the mean ± SEM of three different experiments. Each experiment was performed in duplicate.*P < 0.05, **P < 0.01. (D) YLT192 inhibited VEGF-induced phosphorylation of VEGFR2 and its downstream signal regulator p44/42 MAPK, STAT3 and AKT in HUVECs. One representative Western blot of three is presented. Each has the expression of β-actin as internal control. The full size blots were shown in the Supplemental Figure S5 online. (E) Cellular thermal shift assay showing VEGFR2 target engagement by YLT192 in intact HUVECs. One representative Western blot of two is presented. The full size blots were shown in the Supplemental Figure S6 online. […]
HUVECs were allowed to grow into full confluence in 24-well plates and then wounded by scratching with pipette tips and washed with PBS. […] Images were taken using a ZEISS digital microscope and invading cells were counted by manual counting. […]

The nature of data set [1]: Body weight of tumor-bearing mice during treatment. It is filed as in vivo. The conditions noted are these: U251 and HCT116 tumor-bearing mice; 25, 50 and 100 mg/kg oral daily. The procedure: Figure 5 Anti-tumor activities of YLT192 in vivo. (A) U251 and HCT116 tumor-bearing mice were treated orally with YLT192 at 25, 50 and 100 mg/kg or vehicle daily, respectively. […] (B) Body weight changes in YLT192 and vehicle treated mice. […] For A and B, data are means ± SD. (C) and (D), YLT192 inhibited tumor cell proliferation in HCT116 tumor tissues in vivo. Mice bearing HCT116 tumor xenograft were treated with YLT192 at 50 and 100 mg/kg or vehicle and sacrificed at the end of the experiment. The tumor tissues were removed for further immunohistochemistry analysis using anti-Ki67 (C) and anti-p-p44/42 MAPK antibodies (D). (E) YLT192 induced tumor cell apoptosis in HCT116 tumor in vivo. Apoptosis was measured by TUNEL staining (n = 6 mice per group). Scale bars represent 100 μm.
All animal experiments were approved and conducted by the Institutional Animal Care and Treatment Committee of Sichuan University in China (Permit Number: 20121205). […] Tumor growth and body weight was measured every three days during the treatment. Tumor volumes were calculated using the formula as follow: volume (mm^3) = 0.5 × length (mm) × width (mm)^2. Growth inhibition was calculated from the start of treatment by comparison of the mean change in tumor volume for vehicle and treated group as before.

Structures are written as SMILES.

By IC50 is commonly meant the concentration needed to halve the response being measured.

In the case of `CNC(=O)c1cc(Oc2ccc(NC(=O)c3cccc(OC)c3)cc2)ccn1` [YLT192], the results for the IC50 in the data set on A2058 and in the data set with A875 were 10.7 ± 1.1 µM and 14.1 ± 2.1 µM, respectively. Further, the “migration of HUVEC” value with HUVEC (2.5 μM, wound healing) was “strongly inhibited”. The “HUVECs migration in wound healing assay” value in the data set with HUVEC (various concentrations) is reported as “inhibited HUVECs migration”. For the same molecule, in data set [1], the “body weight vs vehicle group” value is reported as “no significant difference”.
